Data on 20 compounds can be found in PMC12650180, “Discovery of Drug-like Inhibitors of the Human Caf1/CNOT7 poly(A)-Selective Nuclease Using Compound Screening” (Biomolecules, 2025).

Sequence of human Caf1/CNOT7 (Q9UIV1 whole entry): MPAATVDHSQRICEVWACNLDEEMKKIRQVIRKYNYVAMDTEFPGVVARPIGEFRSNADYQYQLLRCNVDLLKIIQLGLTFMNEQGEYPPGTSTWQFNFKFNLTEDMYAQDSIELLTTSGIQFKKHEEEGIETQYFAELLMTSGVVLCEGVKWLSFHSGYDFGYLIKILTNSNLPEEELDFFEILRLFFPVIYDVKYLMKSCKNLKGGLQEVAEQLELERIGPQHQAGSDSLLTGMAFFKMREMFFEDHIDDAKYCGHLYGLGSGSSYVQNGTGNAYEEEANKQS

The assay addresses human Caf1/CNOT7 (Homo sapiens, UniProt Q9UIV1). Briefly: Fluorescence-based Caf1/CNOT7 nuclease activity assay (Flc-RNA substrate, TAMRA-labelled DNA probe). The following applies: mean ± standard deviation; 0.4 μM Caf1/CNOT7, 0.1 μM Flc-RNA substrate, 15 min preincubation, 60 min at 30 °C. It counts as biochemical. On the procedure: Compounds (10 mM in DMSO) were stored in a dry, inert environment at −20 °C in an automated sample management system (comPOUND, TTP Labtech Technology, Melbourn, UK). After dispensing aliquots in 96-well plates, compounds were diluted to 0.5 mM in 20% DMSO/water. Aliquots ([…]; […]) were transferred to black U-well 384-well plates (Greiner Bio-One, Kremsmünster, Austria) using a multichannel pipette. Subsequent screening was carried out as described before with modifications for use with a Biomek 3000 liquid handler (Beckman Coulter, Brea, CA, USA). First, enzyme (8 μL containing 1.0 μM Caf1/CNOT7, 50 mM Tris–HCl pH 7.9, 125 mM NaCl, 5 mM MgCl2, 25% glycerol, 2.5 mM β-mercaptoethanol) was added. After mixing, the mixture was left at room temperature for 15 min before the addition of RNA substrate (8 μL; 0.25 μM Flc-RNA substrate in H2O). The composition of the final reaction mixture was: 0.4 μM Caf1/CNOT7, 0.1 μM Flc-RNA substrate, 20 mM Tris–HCl pH 7.9, 50 mM NaCl, 2 mM MgCl2, 10% glycerol, 1 mM β-mercaptoethanol, 5% DMSO, and 100 μM library compound. After incubation at 30 °C for 60 min, 20 μL probe mix (5 μM DNA probe, 1% SDS, 20 mM Tris–HCl pH 8.0, 0.5 mM EDTA) was added. Fluorescence was measured using a BioTek Synergy HT plate reader using the following filters: 485 ± 20 nm (excitation) and 528 ± 20 nm (emission). Hits were identified following data analysis in Microsoft Excel. Screening data was visualised using GraphPad Prism (version 10.4.0).
Reaction conditions and fluorescence measurements were as described above and before. Non-linear regression was carried out using GraphPad Prism 5.0. IC50 values were typically determined using three independent experiments, each containing three replicates.
To discover new inhibitors of the Caf1/CNOT7 nuclease subunit of the Ccr4–Not complex, we screened a sub-set of the Nottingham Managed Chemical Compound Collection, which contains over 83,000 synthetic compounds that are commercially available and were selected based on chemical diversity and drug-like properties. A representative sub-set of 10,880 compounds was selected and screened in duplicate in a 384-well plate format (Figure 1A). The library compounds were screened using a fluorescence-based activity assay that was developed previously. Briefly, purified Caf1/CNOT7 enzyme was pre-incubated with library compounds. This was followed by the addition of a 5′ fluorescein-labelled RNA oligonucleotide containing a stretch of nine adenosine residues at the 3′ end that served as substrate for Caf1/CNOT7. After incubation, the reaction was terminated and a 3′ TAMRA-labelled DNA probe complementary to the substrate was added. […] However, in case Caf1/CNOT7 was inhibited, the substrate remained intact, resulting in annealing of the DNA probe and quenching of fluorescence due to the close vicinity of the fluorescein and TAMRA fluorophores (Figure 1B).
Figure 3 Determination of the IC50 values of small-molecule inhibitors of Caf1/CNOT7. Compounds were preincubated with Caf1/CNOT7 for 15 min at room temperature, followed by the addition of RNA substrate. After incubation (60 min at 30 °C), reactions were stopped by the addition of SDS and a 5-fold molar excess of DNA probe. The mean values for each independent experiment were plotted (Open square, experiment 1; closed circle, experiment 2; diamond, experiment 3).
Usually IC50 stands for the concentration that inhibits the measured activity by half. With `O=C(Cc1c[nH]c2ccccc12)OCc1ccc(F)cc1Cl` [Compound 5], the IC50 was determined as 17.5 ± 4.2 µM.

For the compound `CC(=O)c1c(C)[nH]c(C(=O)Nc2nnc(Cc3ccccc3)s2)c1C` [Compound 3], the 50% inhibitory concentration (IC50) worked out at 20.7 ± 0.9 µM.

As to `CCOC(=O)Cc1ncccc1C(=O)Nc1ccc(Br)c(C(F)(F)F)c1` [Compound 18], the IC50 amounted to 57.3 ± 10.1 µM.

With `O=C(Nc1nc(-c2ccc(Cl)s2)cs1)c1ccc(O)nc1` [Compound 19], the IC50 came out at 161 ± 13.7 µM.

For the compound `CC(C)NC(=O)Nc1cccc(C(=O)Nc2ccc3oc(C(F)(F)F)nc3c2)c1` [Compound 13], the IC50 is 14.5 ± 10.7 µM.

In the case of `Cc1ccc(CN(Cc2ccc(C)n2C)C(=O)COc2ccccc2C#N)n1C` [Compound 15], the IC50 stood at 24.4 ± 9.2 µM.

On to `Cc1ccc2nc(NC(=O)c3cc(Br)c[nH]3)sc2c1` [Compound 1], for which the concentration for half-maximal inhibition (IC50) was 17.8 ± 0.1 µM.

As for `N#Cc1cc(C#N)c(SCc2nnc(-c3cccs3)o2)nc1N` [Compound 12], the IC50 was 21.3 ± 4.6 µM.

`CC(C)CCn1c(SCC(=O)NC(N)=O)nc2cc(Cl)ccc2c1=O` [Compound 11]: the IC50 is 15.6 ± 3.2 µM.

In the case of `N#Cc1cccc(NC(=O)C(C#N)c2nc3ccccc3s2)c1` (centres unmarked) [Compound 9], the IC50 worked out at 18.4 ± 5.9 µM.

On to `CC(NC(=O)c1ccoc1)C(=O)Nc1cc(-c2cc(Cl)cc(Cl)c2)[nH]n1` (centres unmarked) [Compound 6], for which the IC50 was 19.7 ± 2.5 µM.

In the case of `CC(C)c1ccc(-c2nnn(CC(=O)NC(=O)NCc3ccccc3)n2)cc1` [Compound 7], the IC50 worked out at 17.4 ± 2.7 µM.

As for `CC(=O)Nc1cccc(NC2=NN=C(c3cc(C)[nH]c3C)CS2)c1` [Compound 10], the IC50 was 17.3 ± 1.1 µM.

Consider `Cc1sc2nc(COC(=O)Cn3cc(C(F)(F)F)ccc3=O)nc(N)c2c1C` [Compound 16], for which the IC50 stood at 122 ± 10.7 µM.

For the compound `Cc1cccc2sc(NC(=O)CCC(=O)c3ccc(F)cc3)nc12` [Compound 8], the IC50 was 18.9 ± 4.3 µM.

As for `O=C(COC(=O)Cc1ccc(-c2ccccc2)cc1)NC(=O)c1cccs1` [Compound 21], the concentration for half-maximal inhibition (IC50) is 78.3 ± 9.5 µM.

On to `O=C(Nc1cc(Br)cnc1O)c1ccc2ccccc2c1` [Compound 20], for which the IC50 is 256 ± 20.4 µM.

In the case of `Cc1cc(NC(=O)NC2(C(F)(F)F)Oc3ccc(Cl)cc3O2)no1` (centres unmarked) [Compound 4], the IC50 was 16.8 ± 2.1 µM.

As for `Cc1ccc(NC(=O)c2c[nH]nc2-c2ccc(Cl)cc2)nc1` [Compound 2], the IC50 came out at 19.5 ± 3.4 µM.

With `O=S(=O)(Nc1ccc(SC(F)F)cc1)c1cnn(-c2ccccc2)c1` [Compound 17], the IC50 was 77.7 ± 0.3 µM.
